Assay results from ChEMBL document CHEMBL5532666 (J Med Chem, 2024).

Assays:
[1] = test system: HCT-116; experiment: Cell cycle arrest in human HCT-116 cells expressing […] assessed as G2/M phase cells at 1 uM incubated for 72 hrs by Hoechst33342 staining based analysis (reference value: 38%); format: functional
[2] = test system: HCT-116; experiment: Cell cycle arrest in human HCT-116 cells expressing […] assessed as S phase cells at 10 uM incubated for 72 hrs by Hoechst33342 staining based analysis relative to control; format: functional
[3] = target: T1, Serine/threonine-protein kinase 4 (Homo sapiens, UniProt Q13043); experiment: Binding affinity to N-terminal full length human MST1 expressed in intact HEK293T cells incubated for 2 hrs by NanoBRET assay; format: cell-based
T1 sequence (Q13043 whole entry): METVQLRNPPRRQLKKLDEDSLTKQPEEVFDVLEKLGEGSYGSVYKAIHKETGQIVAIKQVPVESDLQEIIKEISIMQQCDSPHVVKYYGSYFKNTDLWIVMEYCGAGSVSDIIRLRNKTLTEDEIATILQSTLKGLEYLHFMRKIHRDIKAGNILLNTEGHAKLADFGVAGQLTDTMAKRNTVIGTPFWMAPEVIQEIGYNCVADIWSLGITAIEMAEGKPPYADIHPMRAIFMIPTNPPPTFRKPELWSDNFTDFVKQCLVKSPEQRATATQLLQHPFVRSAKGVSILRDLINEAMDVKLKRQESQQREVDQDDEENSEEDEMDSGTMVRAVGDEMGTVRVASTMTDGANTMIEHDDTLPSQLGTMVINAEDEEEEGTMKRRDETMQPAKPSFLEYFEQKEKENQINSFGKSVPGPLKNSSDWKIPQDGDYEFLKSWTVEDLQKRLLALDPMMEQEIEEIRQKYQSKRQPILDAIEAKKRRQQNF

[4] = target: Serine/threonine-protein kinase 26 (Homo sapiens, UniProt Q9P289); experiment: Binding affinity to C-terminal full length human MST4 expressed in permeabilized HEK293T cells incubated for 2 hrs by NanoBRET assay; format: cell-based
Serine/threonine-protein kinase 26, sequence (Q9P289 whole entry): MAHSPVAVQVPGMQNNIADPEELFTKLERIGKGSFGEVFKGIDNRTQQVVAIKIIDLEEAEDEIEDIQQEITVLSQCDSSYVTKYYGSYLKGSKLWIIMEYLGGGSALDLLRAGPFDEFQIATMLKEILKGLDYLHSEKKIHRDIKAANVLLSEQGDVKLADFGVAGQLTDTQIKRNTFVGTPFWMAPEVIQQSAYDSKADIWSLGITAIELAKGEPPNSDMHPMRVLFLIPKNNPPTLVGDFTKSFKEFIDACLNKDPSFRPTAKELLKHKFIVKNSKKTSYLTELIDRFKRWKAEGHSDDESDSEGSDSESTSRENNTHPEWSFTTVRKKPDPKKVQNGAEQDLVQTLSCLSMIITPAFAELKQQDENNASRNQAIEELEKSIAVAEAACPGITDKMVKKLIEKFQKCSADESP

[5] = target: T2, Aurora kinase A (Homo sapiens) (UniProt O14965); experiment: Binding affinity to STK6 (unknown origin) assessed as thermal stabilization by measuring change in melting temperature by DSF analysis
T2 sequence (whole entry): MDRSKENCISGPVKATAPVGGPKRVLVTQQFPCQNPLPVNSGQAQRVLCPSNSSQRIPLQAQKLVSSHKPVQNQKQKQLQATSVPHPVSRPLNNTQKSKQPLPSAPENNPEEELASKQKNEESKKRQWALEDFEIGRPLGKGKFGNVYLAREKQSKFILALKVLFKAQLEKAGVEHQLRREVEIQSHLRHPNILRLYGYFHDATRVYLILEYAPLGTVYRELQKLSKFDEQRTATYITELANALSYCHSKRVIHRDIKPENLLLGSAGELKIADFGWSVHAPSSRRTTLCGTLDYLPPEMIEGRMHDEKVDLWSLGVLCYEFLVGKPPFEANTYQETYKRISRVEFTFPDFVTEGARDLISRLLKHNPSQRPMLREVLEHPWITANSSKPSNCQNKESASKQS

[6] = Toxicity in human HCT-116 cells expressing FUCCI assessed as reduction in normalized cell count at 10 uM measured upto 80 hrs by Hoechst33342 staining based analysis; conditions: hct-116, 80 h
[7] = target: Maternal embryonic leucine zipper kinase (Homo sapiens) (UniProt Q14680); experiment: Binding affinity to MELK (unknown origin) assessed as thermal stabilization by measuring change in melting temperature by DSF analysis
Maternal embryonic leucine zipper kinase (Homo sapiens), sequence (Q14680 whole entry, looked up): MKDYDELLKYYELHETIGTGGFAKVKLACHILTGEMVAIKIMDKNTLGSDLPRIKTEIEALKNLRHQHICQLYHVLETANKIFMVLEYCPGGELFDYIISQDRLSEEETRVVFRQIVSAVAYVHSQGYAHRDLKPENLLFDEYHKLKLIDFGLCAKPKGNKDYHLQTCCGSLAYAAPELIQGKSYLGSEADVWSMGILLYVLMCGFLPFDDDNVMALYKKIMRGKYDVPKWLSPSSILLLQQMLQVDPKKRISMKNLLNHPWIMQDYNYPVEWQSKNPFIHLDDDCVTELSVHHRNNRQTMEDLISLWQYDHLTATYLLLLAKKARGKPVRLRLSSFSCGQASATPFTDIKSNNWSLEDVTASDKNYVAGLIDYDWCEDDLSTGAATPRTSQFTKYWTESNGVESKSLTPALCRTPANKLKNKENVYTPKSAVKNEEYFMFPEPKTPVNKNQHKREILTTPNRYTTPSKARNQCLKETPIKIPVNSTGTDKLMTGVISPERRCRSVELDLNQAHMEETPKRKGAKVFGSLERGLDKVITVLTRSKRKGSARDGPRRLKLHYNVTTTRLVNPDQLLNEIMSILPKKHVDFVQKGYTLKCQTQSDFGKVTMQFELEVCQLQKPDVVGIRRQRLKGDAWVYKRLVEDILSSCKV

[8] = Toxicity in human HCT-116 cells expressing FUCCI assessed as normalized cell count at 10 uM measured after 72 hrs by Hoechst33342 staining based analysis relative to control; conditions: read-out: Activity
[9] = target: T3, Serine/threonine-protein kinase 24 (Homo sapiens, UniProt Q9Y6E0); experiment: Binding affinity to C-terminal full length human MST3 expressed in permeabilized HEK293T cells incubated for 2 hrs by NanoBRET assay; format: cell-based
T3 sequence (Q9Y6E0 whole entry): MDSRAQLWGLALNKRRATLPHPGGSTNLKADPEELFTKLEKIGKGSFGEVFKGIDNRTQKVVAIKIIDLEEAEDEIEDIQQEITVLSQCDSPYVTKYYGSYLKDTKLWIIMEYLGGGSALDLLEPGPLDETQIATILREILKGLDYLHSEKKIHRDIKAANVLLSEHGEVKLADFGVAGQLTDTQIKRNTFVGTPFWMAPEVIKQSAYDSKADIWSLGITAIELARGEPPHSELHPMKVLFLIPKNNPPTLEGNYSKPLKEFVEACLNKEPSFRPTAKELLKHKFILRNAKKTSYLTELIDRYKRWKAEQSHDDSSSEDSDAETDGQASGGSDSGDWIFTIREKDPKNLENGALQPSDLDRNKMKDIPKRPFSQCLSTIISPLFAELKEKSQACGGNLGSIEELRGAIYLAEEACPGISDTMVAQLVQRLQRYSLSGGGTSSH

[10] = target: T3, Serine/threonine-protein kinase 24; experiment: Binding affinity to C-terminal full length human MST3 expressed in intact HEK293T cells incubated for 2 hrs by NanoBRET assay; format: cell-based
[11] = target: T4, Serine/threonine-protein kinase 4 (Homo sapiens) (UniProt Q13043); conditions: dose 10.0 µM
T4 sequence (whole entry): T1 sequence (Q13043 whole entry)
Description: Binding affinity to recombinant MST1 (unknown origin) kinase domain assessed as thermal stabilization by measuring change in melting temperature at 10 uM by DSF analysis

[12] = Toxicity in human HCT-116 cells expressing FUCCI assessed as cells with healthy nuclei at 1 to 10 uM measured after 24 hrs by Hoechst33342 staining based analysis relative to control; format: cell-based; conditions: hct-116, 24 h, dose 1-10 µM
[13] = target: T5, Serine/threonine-protein kinase 3 (Homo sapiens, UniProt Q13188); experiment: Binding affinity to N-terminal full length human MST2 expressed in intact HEK293T cells incubated for 2 hrs by NanoBRET assay; format: cell-based
T5 sequence (Q13188 whole entry): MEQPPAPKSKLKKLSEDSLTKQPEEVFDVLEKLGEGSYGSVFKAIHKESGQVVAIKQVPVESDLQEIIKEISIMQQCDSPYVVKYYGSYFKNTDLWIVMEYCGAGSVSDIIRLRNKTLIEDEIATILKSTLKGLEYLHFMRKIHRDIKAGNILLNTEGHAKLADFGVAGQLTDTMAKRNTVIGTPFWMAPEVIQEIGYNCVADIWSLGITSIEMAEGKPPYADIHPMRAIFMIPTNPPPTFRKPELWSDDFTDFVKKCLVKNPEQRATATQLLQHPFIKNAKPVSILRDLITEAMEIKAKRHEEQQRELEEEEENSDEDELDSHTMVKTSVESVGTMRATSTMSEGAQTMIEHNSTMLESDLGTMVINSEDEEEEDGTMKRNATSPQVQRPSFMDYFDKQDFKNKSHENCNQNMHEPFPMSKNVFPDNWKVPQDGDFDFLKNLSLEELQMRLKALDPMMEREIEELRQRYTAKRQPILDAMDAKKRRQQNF

O=C1NCCCCCNc2nc(c3ccccc3n2)Nc2cc1[nH]n2
Activity [1]: 33% | Activity [2]: 27% | EC50 [3]: > 50000 nM | EC50 [4]: 360 nM | ΔTm [5]: 5.1 °C | Activity [6]: Toxic | ΔTm [7]: 5.1 °C | viability at 72 h, 10 µM [8]: < 30% | EC50 [9]: 80 nM | EC50 [10]: 110 nM | ΔTm [11]: 1.4 °C | Activity [12]: 80% | EC50 [13]: > 50000 nM
